Reference: patent US10640507B2, “PBD antibacterial agents” (KING'S COLLEGE LONDON, priority 2015, dated 2020)
Like-named read-outs stand apart in the source and are kept apart here.

How the values were obtained:
Type in all cases: cell-based
A. baumannii - NCTC13424 = conditions: drug at 4×MIC
Procedure: (§1) 1. Grow bacteria overnight.
(§2) 2. Subculture into an autoclaved conical flask containing 10 ml of TSB to an OD of 0.01 (˜1×10^7 Cfu/ml for KP-M6).
(§3) 4. Take aliquots (100 μl) at timepoints (0, 1, 2, 4, 6, 24 hours) and carry out a serial dilution in PBS (to remove drug and to dilute bacteria to countable numbers).
(§4) 5. Use the serial dilution to perform a Miles Misra—i.e. Add 3×10 μl spots of each dilution onto an agar plate. Incubate overnight and count colonies on spots in the morning.
(§5) 6. Control: Subculture bacteria alongside samples but with no antibiotic added. Take aliquots from this at every time point (0, 1, 2, 4, 6, 24 hours) and perform Miles Misra on these too (as detailed in points 4 and 5 above).
(§6) 7. After the first experiment, if the counts seen on Miles-Misra were zero, total viable counts were determined by spreading 200 μl in a streak down the centre of a TSB agar plate, waiting for the liquid to be absorbed and then spreading over the plate and checking for growth inhibition at the sight of the original streak.
(§7) 8. The compound is considered bactericidal if the inoculum was reduced >3 log10 CFU/ml and bacteriostatic if inoculum was reduced by 0-3 log10 CFU/ml.
(§8) Three measurements were taken for each compound at each time point. These measurements were averaged and the standard deviation was also calculated.

A. baumannii - AYE = conditions: drug at 4×MIC
Procedure: as §1, §2, §3, §4, §5, §6, §7, §8

[1] = tested on: K. pneumonia - NCTC 13438; conditions: drug at 4×MIC
Procedure: as §1, §2, §3, §4, §5, §6, §7, §8

[2] = tested on: K. pneumonia - NCTC 13368; conditions: drug at 4×MIC
Procedure: as §1, §2, §3, §4, §5, §6, §7, §8

[3] = tested on: HeLa (Cervical cancer cell line); assay: MTT cytotoxicity assay; conditions: Homo sapiens, MTT, 24 h continuous exposure, read-out: IC50 HeLa (Cervical cancer cell line)
WI38 (Healthy cell line) = assay: MTT cytotoxicity assay; conditions: Homo sapiens, WI-38; MTT; 24 h continuous exposure; highest concentration tested 20 μM; read-out: IC50 WI38 (Healthy cell line)

Q: COc1cc2c(cc1OCCCC(=O)Nc1cc(C(=O)Nc3ccc4sc(C(=O)N(C)C)cc4c3)n(C)c1)N=C[C@@H]1CCCN1C2=O [KMR-14-33, (S)—N-(2-(dimethylcarbamoyl)benzo[b]thiophen-5-yl)-4-(4-((7-methoxy-5-oxo-2,3,5,11a-tetrahydro-1H-benzo[e]pyrrolo[1,2-a][1,4]-diazepin-8-yl)oxy)butanamido)-1-methyl-1H-pyrrole-2-carboxamide] was tested. Which “Average (Log CFU/ml)” value (A. baumannii - NCTC13424; time-point 1 hours) did it give?
A: Its value is 1923.667 Log CFU/ml.

Q: What about the “n = 1 (Log CFU/ml)” value (A. baumannii - NCTC13424; time-point 1 hours) of the same molecule?
A: Its value is 0 Log CFU/ml.

Q: What about the n = 2 (CFU/ml) (A. baumannii - NCTC13424; time-point 1 hours) of the same molecule?
A: The n = 2 (CFU/ml) was 940 CFU/ml.

Q: What about the n = 3 (CFU/mL) (A. baumannii - NCTC13424; time-point 1 hours) of the same molecule?
A: The n = 3 (CFU/mL) was 4830 CFU/mL.

Q: What about the “Average (Log CFU/ml)” value (A. baumannii - NCTC13424; time-point 2 hours) of the same molecule?
A: Its value is 0 Log CFU/ml.

Q: What about the “n = 1 (Log CFU/ml)” value (A. baumannii - NCTC13424; time-point 2 hours) of the same molecule?
A: Its value is 0 Log CFU/ml.

Q: And the “n = 2 (Log CFU/ml)” value (A. baumannii - NCTC13424; time-point 2 hours)?
A: Its value is 0 Log CFU/ml.

Q: What about the “n = 3 (Log CFU/ml)” value (A. baumannii - NCTC13424; time-point 2 hours) of the same molecule?
A: The value was 0 Log CFU/ml.

Q: And the “Average (Log CFU/ml)” value (A. baumannii - NCTC13424; time-point 4 hours)?
A: The value was 0 Log CFU/ml.

Q: And the “n = 1 (Log CFU/ml)” value (A. baumannii - NCTC13424; time-point 4 hours)?
A: Its value is 0 Log CFU/ml.

Q: And the “n = 2 (Log CFU/ml)” value (A. baumannii - NCTC13424; time-point 4 hours)?
A: The value was 0 Log CFU/ml.

Q: What about the “n = 3 (Log CFU/ml)” value (A. baumannii - NCTC13424; time-point 4 hours) of the same molecule?
A: Its value is 0 Log CFU/ml.

Q: And the “Average (Log CFU/ml)” value (A. baumannii - NCTC13424; time-point 6 hours)?
A: The value was 0 Log CFU/ml.

Q: What about the “n = 1 (Log CFU/ml)” value (A. baumannii - NCTC13424; time-point 6 hours) of the same molecule?
A: Its value is 0 Log CFU/ml.

Q: What about the “n = 2 (Log CFU/ml)” value (A. baumannii - NCTC13424; time-point 6 hours) of the same molecule?
A: The value was 0 Log CFU/ml.

Q: And the “n = 3 (Log CFU/ml)” value (A. baumannii - NCTC13424; time-point 6 hours)?
A: The value was 0 Log CFU/ml.

Q: What about the “Average (Log CFU/ml)” value (A. baumannii - NCTC13424; time-point 24 hours) of the same molecule?
A: The value was 2084 Log CFU/ml.

Q: And the n = 1 (CFU/mL) (A. baumannii - NCTC13424; time-point 24 hours)?
A: The n = 1 (CFU/mL) was 6250 CFU/mL.

Q: What about the “n = 2 (Log CFU/ml)” value (A. baumannii - NCTC13424; time-point 24 hours) of the same molecule?
A: The value was 0 Log CFU/ml.

Q: And the “n = 3 (Log CFU/ml)” value (A. baumannii - NCTC13424; time-point 24 hours)?
A: The value was 0 Log CFU/ml.

Q: And the “Average (Log CFU/ml)” value (A. baumannii - AYE; time-point 1 hours)?
A: Its value is 0 CFU/ml.

Q: What about the “n = 1 (Log CFU/ml)” value (A. baumannii - AYE; time-point 1 hours) of the same molecule?
A: Its value is 0 CFU/ml.

Q: And the “n = 2 (Log CFU/ml)” value (A. baumannii - AYE; time-point 1 hours)?
A: The value was 0 CFU/ml.

Q: And the “n = 3 (Log CFU/ml)” value (A. baumannii - AYE; time-point 1 hours)?
A: Its value is 0 CFU/ml.

Q: What about the “Average (Log CFU/ml)” value (A. baumannii - AYE; time-point 2 hours) of the same molecule?
A: The value was 0 CFU/ml.

Q: And the “n = 1 (Log CFU/ml)” value (A. baumannii - AYE; time-point 2 hours)?
A: Its value is 0 CFU/ml.

Q: And the “n = 2 (Log CFU/ml)” value (A. baumannii - AYE; time-point 2 hours)?
A: The value was 0 CFU/ml.

Q: What about the “n = 3 (Log CFU/ml)” value (A. baumannii - AYE; time-point 2 hours) of the same molecule?
A: The value was 0 CFU/ml.

Q: And the “Average (Log CFU/ml)” value (A. baumannii - AYE; time-point 4 hours)?
A: Its value is 29 CFU/ml.

Q: What about the “n = 1 (Log CFU/ml)” value (A. baumannii - AYE; time-point 4 hours) of the same molecule?
A: Its value is 0 CFU/ml.

Q: What about the “n = 2 (Log CFU/ml)” value (A. baumannii - AYE; time-point 4 hours) of the same molecule?
A: The value was 0 CFU/ml.

Q: What about the “n = 3 (Log CFU/ml)” value (A. baumannii - AYE; time-point 4 hours) of the same molecule?
A: Its value is 85 CFU/ml.

Q: What about the “Average (Log CFU/ml)” value (A. baumannii - AYE; time-point 6 hours) of the same molecule?
A: The value was 1334 CFU/ml.

Q: What about the “n = 1 (Log CFU/ml)” value (A. baumannii - AYE; time-point 6 hours) of the same molecule?
A: The value was 0 CFU/ml.

Q: What about the “n = 2 (Log CFU/ml)” value (A. baumannii - AYE; time-point 6 hours) of the same molecule?
A: The value was 0 CFU/ml.

Q: And the “n = 3 (Log CFU/ml)” value (A. baumannii - AYE; time-point 6 hours)?
A: The value was 4000 CFU/ml.

Q: And the “Average (Log CFU/ml)” value (A. baumannii - AYE; time-point 24 hours)?
A: Its value is 6667.333 CFU/ml.

Q: What about the “n = 1 (Log CFU/ml)” value (A. baumannii - AYE; time-point 24 hours) of the same molecule?
A: The value was 0 CFU/ml.

Q: And the “n = 2 (Log CFU/ml)” value (A. baumannii - AYE; time-point 24 hours)?
A: The value was 20000 CFU/ml.

Q: What about the “n = 3 (Log CFU/ml)” value (A. baumannii - AYE; time-point 24 hours) of the same molecule?
A: The value was 0 CFU/ml.

Q: And the “Average (Log CFU/ml)” value ([1]; time-point 1 hours)?
A: Its value is 1000000 CFU/ml.

Q: What about the “n = 1 (Log CFU/ml)” value ([1]; time-point 1 hours) of the same molecule?
A: The value was 1000000 CFU/ml.

Q: What about the “n = 2 (Log CFU/ml)” value ([1]; time-point 1 hours) of the same molecule?
A: Its value is 2000000 CFU/ml.

Q: What about the “n = 3 (Log CFU/ml)” value ([1]; time-point 1 hours) of the same molecule?
A: Its value is 1 CFU/ml.

Q: And the “Average (Log CFU/ml)” value ([1]; time-point 2 hours)?
A: Its value is 34 CFU/ml.

Q: And the “n = 1 (Log CFU/ml)” value ([1]; time-point 2 hours)?
A: Its value is 0 CFU/ml.

Q: And the “n = 2 (Log CFU/ml)” value ([1]; time-point 2 hours)?
A: Its value is 100 CFU/ml.

Q: And the “n = 3 (Log CFU/ml)” value ([1]; time-point 2 hours)?
A: Its value is 0 CFU/ml.

Q: And the “Average (Log CFU/ml)” value ([1]; time-point 4 hours)?
A: The value was 0 CFU/ml.

Q: And the “n = 1 (Log CFU/ml)” value ([1]; time-point 4 hours)?
A: The value was 0 CFU/ml.

Q: And the “n = 2 (Log CFU/ml)” value ([1]; time-point 4 hours)?
A: The value was 0 CFU/ml.

Q: And the “n = 3 (Log CFU/ml)” value ([1]; time-point 4 hours)?
A: The value was 0 CFU/ml.

Q: And the “Average (Log CFU/ml)” value ([1]; time-point 6 hours)?
A: The value was 0 CFU/ml.

Q: And the “n = 1 (Log CFU/ml)” value ([1]; time-point 6 hours)?
A: The value was 0 CFU/ml.

Q: And the “n = 2 (Log CFU/ml)” value ([1]; time-point 6 hours)?
A: Its value is 0 CFU/ml.

Q: What about the “n = 3 (Log CFU/ml)” value ([1]; time-point 6 hours) of the same molecule?
A: The value was 0 CFU/ml.

Q: And the “Average (Log CFU/ml)” value ([1]; time-point 24 hours)?
A: The value was 0 CFU/ml.

Q: And the “n = 1 (Log CFU/ml)” value ([1]; time-point 24 hours)?
A: Its value is 0 CFU/ml.

Q: What about the “n = 2 (Log CFU/ml)” value ([1]; time-point 24 hours) of the same molecule?
A: The value was 0 CFU/ml.

Q: And the “n = 3 (Log CFU/ml)” value ([1]; time-point 24 hours)?
A: Its value is 0 CFU/ml.

Q: What about the “Average (Log CFU/ml)” value ([2]; time-point 1 hours) of the same molecule?
A: The value was 18850000 CFU/ml.

Q: And the “n = 2 (Log CFU/ml)” value ([2]; time-point 1 hours)?
A: The value was 36000000 CFU/ml.

Q: And the viable count ([2]; time-point 1 hours)?
A: Its viable count is 1.7e+06 CFU/mL.

Q: And the Average (CFU/ml) ([2]; time-point 2 hours)?
A: Its Average (CFU/ml) is 505000 CFU/ml.

Q: And the “n = 2 (Log CFU/ml)” value ([2]; time-point 2 hours)?
A: The value was 900000 CFU/ml.

Q: And the viable count ([2]; time-point 2 hours)?
A: Its viable count is 110000 CFU/mL.

Q: What about the Average (CFU/ml) ([2]; time-point 4 hours) of the same molecule?
A: The Average (CFU/ml) was 0 CFU/ml.

Q: What about the n = 2 (CFU/ml) ([2]; time-point 4 hours) of the same molecule?
A: Its n = 2 (CFU/ml) is 0 CFU/ml.

Q: And the viable count ([2]; time-point 4 hours)?
A: The viable count was 0 CFU/mL.

Q: And the Average (CFU/ml) ([2]; time-point 6 hours)?
A: The Average (CFU/ml) was 0 CFU/ml.

Q: And the n = 2 (CFU/ml) ([2]; time-point 6 hours)?
A: Its n = 2 (CFU/ml) is 0 CFU/ml.

Q: And the viable count ([2]; time-point 6 hours)?
A: The viable count was 0 CFU/mL.

Q: What about the Average (CFU/ml) ([2]; time-point 24 hours) of the same molecule?
A: Its Average (CFU/ml) is 0 CFU/ml.

Q: What about the n = 2 (CFU/ml) ([2]; time-point 24 hours) of the same molecule?
A: The n = 2 (CFU/ml) was 0 CFU/ml.

Q: And the viable count ([2]; time-point 24 hours)?
A: The viable count was 0 CFU/mL.

Q: What about the IC50 [3] of the same molecule?
A: The IC50 was 15.6 µM.

Q: And the IC50 (WI38 (Healthy cell line))?
A: Its IC50 is over 20 µM.
